Data: US10722520B2, “Heterocyclic compounds and their use in preventing or treating bacterial infections” (MUTABILIS, priority 2016, dated 2020)

Experiments:
E. coli UFR39 = assay: MIC of compound alone, broth microdilution; format: cell-based; conditions: Escherichia coli, UFR39, read-out: MIC CAZ alone
Outline: (§1)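 Step one, log-phase suspension set to 5×10^5 cfu/mL final in CA-MHB. Step two, incubation at 35° C under ambient air for 16-20 h. Step three, visual reading of the lowest growth-free concentration as MIC.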

OXA-48 = OXA-48 (Klebsiella pneumoniae, UniProt Q6XEC0); conditions: read-out: IC50 β-lactamase OXA-48; class (D); nitrocefin 200 μM, 30-min pre-incubation, enzyme 0.3 nM
OXA-1 = OXA-1 (Escherichia coli, UniProt P13661); conditions: read-out: IC50 β-lactamase OXA-1; class (D); nitrocefin 200 μM, 30-min pre-incubation, enzyme 0.2 nM
OXA-15 = OXA-15 (Pseudomonas aeruginosa, UniProt Q51574); conditions: read-out: IC50 β-lactamase OXA-15; class (D); nitrocefin 200 μM, 30-min pre-incubation, enzyme 0.4 nM
CTX-M-15 = CTX-M-15 (Escherichia coli, UniProt Q9EXV5); conditions: read-out: IC50 β-lactamase CTX-M-15; class (A); nitrocefin 200 μM, 30-min pre-incubation, enzyme 0.4 nM
AmpC (P99) = AmpC (P99) (Enterobacter cloacae, UniProt P05364); conditions: read-out: IC50 β-lactamase AmpC (P99); class (C); nitrocefin 200 μM, 30-min pre-incubation, enzyme 0.2 nM
SHV-1 = SHV-1 (Klebsiella pneumoniae, UniProt P0AD64); conditions: read-out: IC50 β-lactamase SHV-1; class (A); nitrocefin 200 μM, 30-min pre-incubation, enzyme 0.075 nM
E. cloacae P99 [1] = assay: MIC of compound alone, broth microdilution; format: cell-based; conditions: strain P99; compound alone
Outline: as §1

K. pneumoniae BAA-1898 [2] = assay: MIC of compound alone, broth microdilution; format: cell-based; conditions: strain BAA-1898; compound alone
Outline: as §1

P. aeruginosa CIP107051 [3] = assay: MIC of compound alone, broth microdilution; format: cell-based; conditions: strain CIP107051; compound alone
Outline: as §1

K. pneumoniae 6299 [4] = assay: MIC of compound alone, broth microdilution; format: cell-based; conditions: strain 6299; compound alone
Outline: as §1

E. coli 190317 [5] = assay: MIC of compound alone, broth microdilution; format: cell-based; conditions: strain 190317; compound alone
Outline: as §1

TEM-1 = TEM-1 (Escherichia coli, UniProt P62593); conditions: read-out: IC50 β-lactamase TEM-1; class (A); nitrocefin 200 μM, 30-min pre-incubation, enzyme 0.1 nM
OXA-11 = OXA-11 (Pseudomonas aeruginosa, UniProt Q06778); conditions: read-out: IC50 β-lactamase OXA-11; class (D); nitrocefin 200 μM, 30-min pre-incubation, enzyme 1.2 nM
KPC-2 = KPC-2 (Klebsiella pneumoniae, UniProt Q9F663); conditions: read-out: IC50 β-lactamase KPC-2; class (A); nitrocefin 200 μM, 30-min pre-incubation, enzyme 1 nM
CMY-37 = CMY-37 (Citrobacter freundii, UniProt P05193); conditions: read-out: IC50 β-lactamase CMY-37; class (C); nitrocefin 200 μM, 30-min pre-incubation, enzyme 0.2 nM
E. cloacae P99 [6] = assay: MIC of ceftazidime (CAZ) at fixed concentration of compound (synergy), broth microdilution; format: cell-based; conditions: strain P99; MIC of CAZ, compound fixed at 4 μg/mL
Outline: as §1

K. pneumoniae BAA-1898 [7] = assay: as above; format: cell-based; conditions: strain BAA-1898; MIC of CAZ, compound fixed at 4 μg/mL
Outline: as §1

P. aeruginosa CIP107051 [8] = assay: as above; format: cell-based; conditions: strain CIP107051; MIC of CAZ, compound fixed at 4 μg/mL
Outline: as §1

K. pneumoniae 6299 [9] = assay: as above; format: cell-based; conditions: strain 6299; MIC of CAZ, compound fixed at 4 μg/mL
Outline: as §1

E. coli 190317 [10] = assay: as above; format: cell-based; conditions: strain 190317; MIC of CAZ, compound fixed at 4 μg/mL
Outline: as §1

AmpC (PAE) = AmpC (PAE) (Pseudomonas aeruginosa, UniProt P24735); conditions: read-out: IC50 β-lactamase AmpC (PAE); class (C); nitrocefin 200 μM, 30-min pre-incubation, enzyme 0.4 nM

| SMILES | IC50 (OXA-48) [nM] | IC50 (OXA-1) [nM] | IC50 (OXA-15) [nM] | IC50 (CTX-M-15) [nM] | IC50 (AmpC (P99)) [nM] | IC50 (SHV-1) [nM] | MIC compounds of the invention alone (E. cloacae P99 [1]) [µg/mL] | MIC compounds of the invention alone (K. pneumoniae BAA-1898 [2]) [µg/mL] | MIC compounds of the invention alone (P. aeruginosa CIP107051 [3]) [µg/mL] | MIC compounds of the invention alone (K. pneumoniae 6299 [4]) [µg/mL] | MIC compounds of the invention alone (E. coli 190317 [5]) [µg/mL] | IC50 (TEM-1) [nM] | IC50 (OXA-11) [nM] | IC50 (KPC-2) [nM] | IC50 (CMY-37) [nM] | MIC combination of CAZ and compounds of the invention at 4 μg/mL (E. cloacae P99 [6]) [µg/mL] | MIC combination of CAZ and compounds of the invention at 4 μg/mL (K. pneumoniae BAA-1898 [7]) [µg/mL] | MIC combination of CAZ and compounds of the invention at 4 μg/mL (P. aeruginosa CIP107051 [8]) [µg/mL] | MIC combination of CAZ and compounds of the invention at 4 μg/mL (K. pneumoniae 6299 [9]) [µg/mL] | MIC combination of CAZ and compounds of the invention at 4 μg/mL (E. coli 190317 [10]) [µg/mL] | also measured |
| --- | --- | --- | --- | --- | --- | --- | --- | --- | --- | --- | --- | --- | --- | --- | --- | --- | --- | --- | --- | --- | --- |
| CC(C)(O/N=C(\C(=O)N[C@@H]1C(=O)N2C(C(=O)[O-])=C(C[n+]3ccccc3)CS[C@H]12)c1csc(N)n1)C(=O)O [CAZ, ceftazidime, reference compound] | – | – | – | – | – | – | – | – | – | – | – | – | – | – | – | – | – | – | – | – | MIC (E. coli UFR39): > 1020 µg/mL |
| O=C([O-])CCc1cn(C2=CC3CN(C2)C(=O)N3OS(=O)(=O)[O-])nn1.[Na+].[Na+] (stereo not shown) [Example 65, disodium [3-[4-(propanoate)triazol-1-yl]-7-oxo-1,6-diazabicyclo[3.2.1]oct-3-en-6-yl]sulfate] | 0.8 | 53 | 6.7 | 0.96 | 11 | 2.8 | 32 | 32 | >32 | 32 | 32 | 0.27 | 270 | 6 | 13 | 8 | 64 | 8 | 2 | 0.5 | IC50 (AmpC (PAE)): 490 nM |
| CN(C)C.NC(=O)CCc1nccn1C1=CC2CN(C1)C(=O)N2OS(=O)(=O)O (stereo not shown) [Example 73, trimethylammonium [3-[2-(3-amino-3-oxo-propyl)imidazol-1-yl]-7-oxo-1,6-diazabicyclo[3.2.1]oct-3-en-6-yl]sulfate] | 3.7 | 44 | 270 | 4.4 | 92 | 9.8 | >32 | >32 | >32 | >32 | >32 | 1.9 | 87 | 78 | 86 | 4 | 1 | 8 | 4 | 0.5 | IC50 (AmpC (PAE)): 250 nM |
| O=C1N2CC(n3cc(S(=O)(=O)NCCO)cn3)=CC(C2)N1OS(=O)(=O)[O-].[Na+] (stereo not shown) [Example 74, sodium [3-[4-(2-hydroxyethylsulfamoyl)pyrazol-1-yl]-7-oxo-1,6-diazabicyclo[3.2.1]oct-3-en-6-yl]sulfate] | 2.9 | 22 | 48 | 1.1 | 9.5 | 2.2 | 16 | 16 | >32 | 16 | 8 | 0.34 | 20 | 3 | 25 | 0.5 | 0.25 | 8 | ≤0.25 | ≤0.25 | IC50 (AmpC (PAE)): 110 nM |
| O=C1N2CC(n3ccc(-c4ncco4)n3)=CC(C2)N1OS(=O)(=O)[O-].[Na+] (stereo not shown) [Example 78] | 3 | 64 | 24 | 0.46 | 14 | 1.5 | >32 | >32 | >32 | >32 | >32 | 0.37 | 6.5 | 2.7 | 29 | 8 | 16 | 8 | 2 | 0.5 | IC50 (AmpC (PAE)): 250 nM |
